Measured values published in patent US6414142B1, “Process for preparing potassium clavulanate” (SmithKline Beecham Corporation, priority 1996, dated 2002).

Assays:
Format in all cases: physicochemical
[1] = Particle size distribution of potassium clavulanate crystalline forms; conditions: crystalline form comparison, Example 5
[2] = Flowability of potassium clavulanate crystalline forms; conditions: crystalline form comparison, Example 5
[3] = Stability / shelf-life compared with prior art crystalline forms; conditions: compared to rosette, needle and starburst forms; generally lower polymer level

Row | Compound | Particle Size Distribution [1] | Flowabiiity [2] | stability and shelf-life [3]
1 | O=C(O)[C@H]1/C(=C/CO)O[C@@H]2CC(=O)N21 [Needles/rods, potassium clavulanate] | 34.1-67.3 microns | 3.4 | 
2 | O=C(O)[C@H]1/C(=C/CO)O[C@@H]2CC(=O)N21 [Rosette-like Starbursts, potassium clavulanate] | 35.1- 97.9 microns | 4.8 | greater stability
3 | O=C(O)[C@H]1/C(=C/CO)O[C@@H]2CC(=O)N21 [Rosettes, potassium clavulanate] | 34.8- 66.4 microns | 6.1 | 
4 | O=C(O)[C@H]1/C(=C/CO)O[C@@H]2CC(=O)N21 [Starbursts/Broken Starbursts, potassium clavulanate] | 33.5-70.5 microns |  | 
